# Tests used:
# Design in all cases: agar dilution MIC, growth inhibition of clinical Burkholderia isolates
# [1] = system: T1, B. arboris AU24192; assay: organism not typed
# T1 construct: AU24192
# Method in brief: (§1)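 MICs by agar dilution against Bcc and B. gladioli clinical isolates, interpreted with CLSI breakpoints where available; K. pneumoniae ATCC 700603 (SHV-18) and ATCC BAA-1705 (KPC) served as quality controls.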
# [2] = system: T2, B. cenocepacia AU12659; assay: microbe, parasite or virus in culture; conditions: Burkholderia cenocepacia, AU12659
# T2 construct: AU12659
# Method in brief: as §1
# [3] = system: T3, B. cenocepacia AU13262; assay: microbe, parasite or virus in culture; conditions: Burkholderia cenocepacia, AU13262
# T3 construct: AU13262
# Method in brief: as §1
# [4] = system: T4, B. cenocepacia AU19276; assay: microbe, parasite or virus in culture; conditions: Burkholderia cenocepacia, AU19276
# T4 construct: AU19276
# Method in brief: as §1
# [5] = system: T5, B. cepacia AU0108; assay: microbe, parasite or virus in culture; conditions: Burkholderia cepacia, AU0108
# T5 construct: AU0108
# Method in brief: as §1
# [6] = system: T6, B. dolosa AU12872; assay: microbe, parasite or virus in culture; conditions: Burkholderia dolosa, AU12872
# T6 construct: AU12872
# Method in brief: as §1
# [7] = system: T7, B. dolosa AU29021; assay: microbe, parasite or virus in culture; conditions: Burkholderia dolosa, AU29021
# T7 construct: AU29021
# Method in brief: as §1
# [8] = system: T8, B. gladioli AU1009; assay: organism not typed
# T8 construct: AU1009
# Method in brief: as §1
# [9] = system: T9, B. gladioli AU26456; assay: organism not typed
# T9 construct: AU26456
# Method in brief: as §1
# [10] = system: T10, B. gladioli AU28659; assay: organism not typed
# T10 construct: AU28659
# Method in brief: as §1
# [11] = system: T11, B. multivorans AU13919; assay: microbe, parasite or virus in culture; conditions: Burkholderia multivorans, AU13919
# T11 construct: AU13919
# Method in brief: as §1
# [12] = system: T12, B. multivorans AU14371; assay: microbe, parasite or virus in culture; conditions: Burkholderia multivorans, AU14371
# T12 construct: AU14371
# Method in brief: as §1
# [13] = system: T13, B. multivorans AU14786; assay: microbe, parasite or virus in culture; conditions: Burkholderia multivorans, AU14786
# T13 construct: AU14786
# Method in brief: as §1
# [14] = system: T14, B. multivorans AU15954; assay: microbe, parasite or virus in culture; conditions: Burkholderia multivorans, AU15954
# T14 construct: AU15954
# Method in brief: as §1
# [15] = system: T15, B. multivorans AU23919; assay: microbe, parasite or virus in culture; conditions: Burkholderia multivorans, AU23919
# T15 construct: AU23919
# Method in brief: as §1
# [16] = system: T16, B. multivorans AU24277; assay: microbe, parasite or virus in culture; conditions: Burkholderia multivorans, AU24277
# T16 construct: AU24277
# Method in brief: as §1
# [17] = system: T17, B. multivorans AU26250; assay: microbe, parasite or virus in culture; conditions: Burkholderia multivorans, AU26250
# T17 construct: AU26250
# Method in brief: as §1
# [18] = system: T18, B. multivorans AU28069; assay: microbe, parasite or virus in culture; conditions: Burkholderia multivorans, AU28069
# T18 construct: AU28069
# Method in brief: as §1
# [19] = system: T19, B. vietnamiensis AU19457; assay: microbe, parasite or virus in culture; conditions: Burkholderia vietnamiensis, AU19457
# T19 construct: AU19457
# Method in brief: as §1
# [20] = system: T20, B. vietnamiensis AU21549; assay: microbe, parasite or virus in culture; conditions: Burkholderia vietnamiensis, AU21549
# T20 construct: AU21549
# Method in brief: as §1
# [21] = system: T21, Burkholderia cepacia complex Bcc Indeterminate AU12848; assay: microbe, parasite or virus in culture; conditions: Burkholderia cepacia
# T21 construct: AU12848
# Method in brief: as §1
# [22] = system: T22, Burkholderia cepacia complex Bcc Indeterminate AU9162; assay: microbe, parasite or virus in culture; conditions: Burkholderia cepacia
# T22 construct: AU9162
# Method in brief: as §1
SMILES,MIC [1] [µg/mL],MIC [2] [µg/mL],MIC [3] [µg/mL],MIC [4] [µg/mL],MIC [5] [µg/mL],MIC [6] [µg/mL],MIC [7] [µg/mL],MIC [8] [µg/mL],MIC [9] [µg/mL],MIC [10] [µg/mL],MIC [11] [µg/mL],MIC [12] [µg/mL],MIC [13] [µg/mL],MIC [14] [µg/mL],MIC [15] [µg/mL],MIC [16] [µg/mL],MIC [17] [µg/mL],MIC [18] [µg/mL],MIC [19] [µg/mL],MIC [20] [µg/mL],also measured
CO/N=C(\C(=O)N[C@@H]1C(=O)N2C(C(=O)[O-])=C(C[N+]3(C)CCCC3)CS[C@H]12)c1csc(N)n1 [cefepime],32,16,> 32,8,8,> 32,> 32,16,4,32,8,8,> 32,8,32,> 32,4,8,> 32,2,MIC [21]: > 32 µg/mL; MIC [22]: 32 µg/mL
C[C@H]1COc2c(N3CCN(C)CC3)c(F)cc3c(=O)c(C(=O)O)cn1c23 [levofloxacin],4,1,4,0.5,2,> 32,4,0.5,0.5,2,2,2,> 32,2,2,32,2,4,16,4,MIC [21]: 8 µg/mL; MIC [22]: 1 µg/mL
C[C@@H](O)[C@H]1C(=O)N2C(C(=O)O)=C(S[C@@H]3CN[C@H](C(=O)N(C)C)C3)[C@H](C)[C@H]12 [meropenem],8,4,4,2,4,32,8,1,1,2,8,4,16,4,4,16,2,4,4,0.5,MIC [21]: 8 µg/mL; MIC [22]: 4 µg/mL
